Laboratory results published in ChEMBL document CHEMBL1156106 (J Med Chem, 2009).

Tests used:
Rattus norvegicus [1] = assay: Effect on behavioural activity in rat assessed as cocaine-induced lever response at 2.5 mg/kg, ip pretreated with cocaine for 15 mins by drug-discrimination studies; type: functional; conditions: route intraperitoneal
[2] = molecular target: Sodium-dependent serotonin transporter (Homo sapiens, UniProt P31645); assay: biochemical; type: cell-based, HEK293
Mus musculus [3] = assay: Antidepressant activity in ip dosed mouse assessed as time to reach peak stimulation of locomotor activity; type: functional
Rattus norvegicus [4] = assay: Effect on behavioural activity in rat assessed as cocaine-induced lever response at 25 mg/kg, ip pretreated with cocaine for 15 mins by drug-discrimination studies; type: functional; conditions: route intraperitoneal
Rattus norvegicus [5] = assay: Effect on behavioural activity in ip dosed rat assessed as cocaine-induced lever response pretreated with cocaine by drug-discrimination studies; type: functional
Rattus norvegicus [6] = assay: Effect on behavioural activity in rat assessed as cocaine-induced lever response at 5 mg/kg, ip pretreated with cocaine for 15 mins by drug-discrimination studies; type: functional; conditions: route intraperitoneal
Mus musculus [7] = assay: Antidepressant activity in ip dosed mouse assessed as stimulation of locomotor activity relative to cocaine; type: functional
Mus musculus [8] = assay: Antidepressant activity in ip dosed mouse assessed as duration of locomotor activity; type: functional
Rattus norvegicus [9] = assay: Effect on behavioural activity in rat assessed as cocaine-induced lever response at 10 mg/kg, ip pretreated with cocaine for 15 mins by drug-discrimination studies; type: functional; conditions: route intraperitoneal
[10] = molecular target: Sodium-dependent noradrenaline transporter (Homo sapiens, UniProt P23975); assay: Displacement of [125I]RTI55 from cloned human NET expressed in HEK293 cells; type: cell-based
Sequence of Sodium-dependent noradrenaline transporter (P23975 whole entry): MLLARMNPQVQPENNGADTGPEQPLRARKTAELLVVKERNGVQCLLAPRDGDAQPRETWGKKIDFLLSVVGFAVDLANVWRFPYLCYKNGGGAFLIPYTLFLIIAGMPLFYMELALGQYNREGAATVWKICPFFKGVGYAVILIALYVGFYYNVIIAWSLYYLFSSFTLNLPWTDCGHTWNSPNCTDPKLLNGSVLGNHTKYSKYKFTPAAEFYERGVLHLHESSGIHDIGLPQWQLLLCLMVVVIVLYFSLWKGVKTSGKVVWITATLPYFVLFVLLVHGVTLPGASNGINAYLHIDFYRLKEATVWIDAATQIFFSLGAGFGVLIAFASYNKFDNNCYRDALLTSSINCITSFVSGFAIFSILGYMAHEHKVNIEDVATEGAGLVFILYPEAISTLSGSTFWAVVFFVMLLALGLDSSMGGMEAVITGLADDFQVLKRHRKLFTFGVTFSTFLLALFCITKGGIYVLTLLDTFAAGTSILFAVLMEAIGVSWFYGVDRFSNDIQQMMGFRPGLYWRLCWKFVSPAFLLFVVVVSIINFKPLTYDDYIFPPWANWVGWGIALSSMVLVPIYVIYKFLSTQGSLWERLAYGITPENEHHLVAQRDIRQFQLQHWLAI

Rattus norvegicus [11] = assay: Effect on behavioural activity in rat assessed as cocaine-induced lever response at 50 mg/kg, ip pretreated with cocaine for 15 mins by drug-discrimination studies; type: functional; conditions: route intraperitoneal
Mus musculus [12] = assay: Antidepressant activity in ip dosed mouse assessed as stimulation of locomotor activity; type: functional
[13] = molecular target: Sodium-dependent dopamine transporter (Homo sapiens, UniProt Q01959); assay: Displacement of [125I]RTI55 from cloned human DAT expressed in HEK293 cells; type: cell-based
Sequence of Sodium-dependent dopamine transporter (Q01959 whole entry): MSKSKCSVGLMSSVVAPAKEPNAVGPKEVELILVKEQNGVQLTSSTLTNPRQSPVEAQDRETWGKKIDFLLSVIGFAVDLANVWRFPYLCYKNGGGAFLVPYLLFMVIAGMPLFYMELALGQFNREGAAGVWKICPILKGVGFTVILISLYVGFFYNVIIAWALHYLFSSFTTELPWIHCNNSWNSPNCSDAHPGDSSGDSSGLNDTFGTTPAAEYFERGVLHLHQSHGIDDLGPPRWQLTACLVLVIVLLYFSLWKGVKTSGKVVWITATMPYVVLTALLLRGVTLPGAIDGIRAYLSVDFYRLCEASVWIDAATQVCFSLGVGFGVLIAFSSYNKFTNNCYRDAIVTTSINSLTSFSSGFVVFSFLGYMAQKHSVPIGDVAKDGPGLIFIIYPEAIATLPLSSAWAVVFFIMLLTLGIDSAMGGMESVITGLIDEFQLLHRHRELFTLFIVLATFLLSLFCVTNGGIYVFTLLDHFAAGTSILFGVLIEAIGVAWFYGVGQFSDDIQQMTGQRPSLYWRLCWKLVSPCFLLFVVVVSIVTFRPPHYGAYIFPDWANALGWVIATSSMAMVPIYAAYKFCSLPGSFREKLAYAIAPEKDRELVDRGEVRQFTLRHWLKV

Rattus norvegicus [14] = assay: Effect on behavioural activity in rat assessed as cocaine-induced lever response at 50 mg/kg, po pretreated with cocaine for 180 mins by drug-discrimination studies; type: functional
Rattus norvegicus [15] = assay: Effect on behavioural activity in rat assessed as cocaine-induced lever response at 50 mg/kg, po pretreated with cocaine for 45 mins by drug-discrimination studies; type: functional
Rattus norvegicus [16] = assay: Effect on behavioural activity in rat assessed as cocaine-induced lever response at 5 mg/kg, po pretreated with cocaine for 180 mins by drug-discrimination studies; type: functional
Rattus norvegicus [17] = assay: Effect on behavioural activity in rat assessed as cocaine-induced lever response at 2.5 mg/kg, po pretreated with cocaine for 45 mins by drug-discrimination studies; type: functional
Rattus norvegicus [18] = assay: Effect on behavioural activity in rat assessed as cocaine-induced lever response at 25 mg/kg, po pretreated with cocaine for 180 mins by drug-discrimination studies; type: functional
Rattus norvegicus [19] = assay: Effect on behavioural activity in rat assessed as cocaine-induced lever response at 10 mg/kg, po pretreated with cocaine for 360 mins by drug-discrimination studies; type: functional
Rattus norvegicus [20] = assay: Effect on behavioural activity in rat assessed as cocaine-induced lever response at 5 mg/kg, po pretreated with cocaine for 45 mins by drug-discrimination studies; type: functional
Rattus norvegicus [21] = assay: Effect on behavioural activity in rat assessed as cocaine-induced lever response at 25 mg/kg, po pretreated with cocaine for 45 mins by drug-discrimination studies; type: functional
Rattus norvegicus [22] = assay: Effect on behavioural activity in rat assessed as cocaine-induced lever response at 10 mg/kg, po pretreated with cocaine for 180 mins by drug-discrimination studies; type: functional
Rattus norvegicus [23] = assay: Effect on behavioural activity in po dosed rat assessed as cocaine-induced lever response pretreated with cocaine by drug-discrimination studies; type: functional
Rattus norvegicus [24] = assay: Effect on behavioural activity in rat assessed as cocaine-induced lever response at 25 mg/kg, po pretreated with cocaine for 90 mins by drug-discrimination studies; type: functional
Rattus norvegicus [25] = assay: Effect on behavioural activity in rat assessed as cocaine-induced lever response at 25 mg/kg, po pretreated with cocaine for 360 mins by drug-discrimination studies; type: functional
Rattus norvegicus [26] = assay: Effect on behavioural activity in rat assessed as cocaine-induced lever response at 2.5 mg/kg, po pretreated with cocaine for 360 mins by drug-discrimination studies; type: functional
Rattus norvegicus [27] = assay: Effect on behavioural activity in rat assessed as cocaine-induced lever response at 5 mg/kg, po pretreated with cocaine for 360 mins by drug-discrimination studies; type: functional
Rattus norvegicus [28] = assay: Effect on behavioural activity in rat assessed as cocaine-induced lever response at 50 mg/kg, po pretreated with cocaine for 90 mins by drug-discrimination studies; type: functional
Rattus norvegicus [29] = assay: Effect on behavioural activity in rat assessed as cocaine-induced lever response at 5 mg/kg, po pretreated with cocaine for 90 mins by drug-discrimination studies; type: functional
Rattus norvegicus [30] = assay: Effect on behavioural activity in rat assessed as cocaine-induced lever response at 2.5 mg/kg, po pretreated with cocaine for 180 mins by drug-discrimination studies; type: functional
Rattus norvegicus [31] = assay: Effect on behavioural activity in rat assessed as cocaine-induced lever response at 10 mg/kg, po pretreated with cocaine for 90 mins by drug-discrimination studies; type: functional
Rattus norvegicus [32] = assay: Effect on behavioural activity in rat assessed as cocaine-induced lever response at 2.5 mg/kg, po pretreated with cocaine for 90 mins by drug-discrimination studies; type: functional
Rattus norvegicus [33] = assay: Effect on behavioural activity in rat assessed as cocaine-induced lever response at 10 mg/kg, po pretreated with cocaine for 45 mins by drug-discrimination studies; type: functional
Rattus norvegicus [34] = assay: Effect on behavioural activity in rat assessed as cocaine-induced lever response at 50 mg/kg, po pretreated with cocaine for 360 mins by drug-discrimination studies; type: functional

Sequence of Sodium-dependent serotonin transporter (P31645 whole entry): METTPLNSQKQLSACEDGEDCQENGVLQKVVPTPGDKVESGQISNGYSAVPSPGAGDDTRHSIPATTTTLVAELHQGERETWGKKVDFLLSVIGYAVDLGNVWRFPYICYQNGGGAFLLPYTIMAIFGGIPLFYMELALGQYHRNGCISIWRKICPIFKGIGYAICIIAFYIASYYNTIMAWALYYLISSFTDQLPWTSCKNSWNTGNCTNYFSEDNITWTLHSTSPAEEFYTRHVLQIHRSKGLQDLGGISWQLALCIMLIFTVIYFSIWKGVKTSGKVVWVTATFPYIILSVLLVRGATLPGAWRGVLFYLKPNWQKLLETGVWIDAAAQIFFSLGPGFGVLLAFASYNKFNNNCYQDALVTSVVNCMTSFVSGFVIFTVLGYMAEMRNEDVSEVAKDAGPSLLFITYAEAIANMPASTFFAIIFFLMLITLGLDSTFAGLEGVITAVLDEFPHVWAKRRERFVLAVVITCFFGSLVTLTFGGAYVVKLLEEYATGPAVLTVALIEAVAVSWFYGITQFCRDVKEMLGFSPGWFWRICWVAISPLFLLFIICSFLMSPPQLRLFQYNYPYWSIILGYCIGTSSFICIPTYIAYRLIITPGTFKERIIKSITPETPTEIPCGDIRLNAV

Q: What does the source list for `CCN(CC)C(C)C(=O)c1cccc(Cl)c1` (stereo not drawn)?
A: Activity (Rattus norvegicus [1]): 0%; Ki [2]: > 10 µM; Time to peak locomotor stimulation (Mus musculus [3]): 20 min; Activity (Rattus norvegicus [4]): 74.8%; ED50 (Rattus norvegicus [5]): 3.2 mg/kg; Activity (Rattus norvegicus [6]): 16.7%; Activity (Mus musculus [7]): 90%; Time (Mus musculus [8]): 130 min; Activity (Rattus norvegicus [9]): 98.6%

Q: For `CC(C(=O)c1cccc(Cl)c1)N(C)C(C)(C)C` (stereo not drawn), which Ki [2] is on record?
A: > 10 µM

Q: What about the “Time to peak locomotor stimulation” value (Mus musculus [3]) of the same compound?
A: 80 min

Q: And the Activity (Rattus norvegicus [4])?
A: 75%

Q: And the Ki [10]?
A: > 10 µM

Q: What about the Activity (Rattus norvegicus [11]) of the same compound?
A: 66.7%

Q: And the ED50 (Mus musculus [12])?
A: 11.7 mg/kg

Q: What about the Activity (Mus musculus [7]) of the same compound?
A: 95%

Q: What about the Time (Mus musculus [8]) of the same compound?
A: 200 min

Q: And the Activity (Rattus norvegicus [9])?
A: 49.4%

Q: How did the Ki [2] turn out when `CC1C(=O)c2cc(Cl)ccc2CN1C(C)(C)C` (stereo not drawn) was run?
A: > 10 µM

Q: What about the Ki [10] of the same compound?
A: > 10 µM

Q: And the Ki [13]?
A: > 10 µM

Q: Which Ki [2] does the source give for `CC(CNC(C)(C)C)C(=O)c1cccc(Cl)c1` (stereo not drawn) here?
A: > 10 µM

Q: And the Ki [10]?
A: > 10 µM

Q: And the Ki [13]?
A: > 10 µM

Q: What does the source list for `Cc1cccc(C(=O)C(C)NC(C)(C)C)c1` (stereo not drawn)?
A: Ki [2]: > 10 µM; Time to peak locomotor stimulation (Mus musculus [3]): 10 min; Ki [10]: > 10 µM; Activity (Mus musculus [7]): 76%; Time (Mus musculus [8]): 50 min

Q: For `Cc1ccc(C(=O)C(C)NC(C)(C)C)cc1Cl` (stereo not drawn), which “Time to peak locomotor stimulation” value (Mus musculus [3]) is on record?
A: 10 min

Q: What about the ED50 (Mus musculus [12]) of the same compound?
A: ≥ 35.5 mg/kg

Q: And the Activity (Mus musculus [7])?
A: >=77%

Q: And the Time (Mus musculus [8])?
A: 60 min

Q: Which Ki [2] does the source give for `CC(C)(C)NC1CCc2ccc(Cl)cc2C1=O` (stereo not drawn) here?
A: > 10 µM

Q: And the Ki [10]?
A: > 10 µM

Q: And the ED50 (Mus musculus [12])?
A: 2.6 mg/kg

Q: What about the Ki [13] of the same compound?
A: > 10 µM

Q: Which results are given for `CC(NC(C)(C)C)C(=O)c1ccccc1` (stereo not drawn)?
A: Activity (Rattus norvegicus [1]): 16%; Activity (Rattus norvegicus [14]): 50%; Activity (Rattus norvegicus [15]): 83%; Activity (Rattus norvegicus [16]): 33%; Activity (Rattus norvegicus [17]): 6%; Activity (Rattus norvegicus [18]): 20%; Activity (Rattus norvegicus [19]): 0%; Ki [2]: > 10 µM; Time to peak locomotor stimulation (Mus musculus [3]): 0 min; Activity (Rattus norvegicus [20]): 0%; Activity (Rattus norvegicus [4]): 83.4%; Activity (Rattus norvegicus [21]): 51%; ED50 (Rattus norvegicus [5]): 1 mg/kg; Activity (Rattus norvegicus [22]): 3%; ED50 (Rattus norvegicus [23]): 25.2 mg/kg; Activity (Rattus norvegicus [24]): 33%; Activity (Rattus norvegicus [6]): 32.8%; Activity (Rattus norvegicus [25]): 34%; Activity (Rattus norvegicus [26]): 0%; Activity (Rattus norvegicus [27]): 0%; ED50 (Mus musculus [12]): 11.2 mg/kg; Activity (Mus musculus [7]): 95%; Activity (Rattus norvegicus [28]): 33%; Activity (Rattus norvegicus [29]): 0%; Activity (Rattus norvegicus [30]): 0%; Activity (Rattus norvegicus [31]): 0%; Time (Mus musculus [8]): 120 min; Activity (Rattus norvegicus [9]): 83.3%; Activity (Rattus norvegicus [32]): 1%; Activity (Rattus norvegicus [33]): 0%; Activity (Rattus norvegicus [34]): 4%
